Measured values taken from patent US12642269B2, “Hydrogels as carriers of active ingredients and methods of producing the same” (WinField Solutions, LLC, priority 2018, dated 2026).

How the values were obtained:
gumbo plants [1] = experiment: Example 3: herbicide-induced plant injury or death from carrier hydrogel precursor mixtures applied to plants, visual rating; assay type: in vivo; conditions: 14 days after spraying; glyphosate about 2.34% v/v, 10 gallons spray solution per acre; greenhouse; 100% = total death
Protocol: Release of an herbicide from loaded hydrogels was indirectly studied by examining plant injury or death. Hydrogel precursor mixtures were prepared according to the method 200 illustrated in FIG. 2. The precursor mixture was prepared at a lactose to methacrylic anhydride ratio of 1:0.5.
Glyphosate (as Touchdown HiTech®, Syngenta) alone (control group) or glyphosate plus hydrogel precursor mixture (test groups) was added to water to form a spray solution. The amount of glyphosate in a spray solution was approximately the same (i.e., about 2.34% v/v) for each control and test group. Test groups also included hydrogel precursor mixture at 5% v/v, 10% v/v, 20% v/v, 25% v/v, or 50% v/v of spray solution. Each group included five gumbo plants in a greenhouse. Control or test groups were sprayed at 10 gallons of spray solution per acre. In the test groups, the hydrogel precursor mixtures plus glyphosate were allowed to crosslink in ambient conditions after application to the plants.
Plant injury or death, from direct glyphosate application (control) or release of glyphosate from carrier hydrogels (tests), was measured after 14 days by a visual rating system. Results are presented in FIG. 5 as plant injury or death as a percentage, where “100% control” represents total death of a plant. […]

gumbo plants [2] = experiment: Example 4: herbicide-induced plant injury or death from precursor mixtures of different lactose to methacrylic anhydride ratios, visual rating; assay type: in vivo; conditions: 14 days after spraying; glyphosate about 2.34% v/v, 10 gallons spray solution per acre; greenhouse; 100% = total death
Protocol: Release of an herbicide from loaded hydrogels was indirectly studied by examining plant injury or death. Hydrogel precursor mixtures were prepared according to the method 200 illustrated in FIG. 2. The precursor mixture was prepared at a lactose to methacrylic anhydride ratio of 1:0.5, 1:0.25, or 1:0.1 (test groups).
Glyphosate (as Touchdown HiTech®, Syngenta) alone (control group) or glyphosate plus hydrogel precursor mixture (test groups) was added to water to form a spray solution. The amount of glyphosate in spray solution was approximately the same (i.e., about 2.34% v/v) for each control and test group. Test groups also included one of the hydrogel precursor mixtures at 5% v/v. Each group included five gumbo plants in a greenhouse. Control or test groups were sprayed at 10 gallons of spray solution per acre. In the test groups, the hydrogel precursor mixtures plus glyphosate were allowed to crosslink in ambient conditions after application to the plants.
Plant injury or death, from direct glyphosate application (control) or release of glyphosate from carrier hydrogels (tests), was measured after 14 days by a visual rating system. Results are presented in FIG. 5 as plant injury or death as a percentage, where “100% control” represents total death of a plant. The same letter attributed to more than one group indicates no statistically significant difference between those groups. […]

Question: Which results are given for `O=C(O)CNCP(=O)(O)O` [Glyphosate, N-(phosphonomethyl)glycine]?
Answer: Plant injury or death (average damage on plants) (gumbo plants [1]): 85%; Plant injury or death (average damage on plants) (gumbo plants [2]): 55%
